Measurements as given in BigSolDB 2.1.

O=c1cc(-c2ccccc2)oc2c1ccc1ccccc12
Settings	solubility (mole fraction)
in 1,4-dioxane, 288.15 K	0.0128
in 1,4-dioxane, 293.15 K	0.0158
in 1,4-dioxane, 298.15 K	0.019
in 1,4-dioxane, 303.15 K	0.0223
in 1,4-dioxane, 308.15 K	0.0259
in 1,4-dioxane, 313.15 K	0.0307
in 1,4-dioxane, 318.15 K	0.0363
in acetone, 273.15 K	0.00209
in acetone, 278.15 K	0.00273
in acetone, 283.15 K	0.00326
in acetone, 288.15 K	0.00392
in acetone, 293.15 K	0.00466
in acetone, 298.15 K	0.00546
in acetone, 303.15 K	0.00636
in acetone, 308.15 K	0.00736
in acetone, 313.15 K	0.00846
in acetone, 318.15 K	0.00963
in acetonitrile, 273.15 K	0.000628
in acetonitrile, 278.15 K	0.000846
in acetonitrile, 283.15 K	0.00105
in acetonitrile, 288.15 K	0.00126
in acetonitrile, 293.15 K	0.0015
in acetonitrile, 298.15 K	0.00176
in acetonitrile, 303.15 K	0.00204
in acetonitrile, 308.15 K	0.00242
in acetonitrile, 313.15 K	0.00291
in acetonitrile, 318.15 K	0.0034
in cyclohexane, 283.15 K	0.000138
in cyclohexane, 288.15 K	0.000189
in cyclohexane, 293.15 K	0.000246
in cyclohexane, 298.15 K	0.00031
in cyclohexane, 303.15 K	0.000391
in cyclohexane, 308.15 K	0.000477
in cyclohexane, 313.15 K	0.000573
in cyclohexane, 318.15 K	0.000694
in ethanol, 273.2 K	0.000306
in ethanol, 278.2 K	0.000475
in ethanol, 283.2 K	0.000677
in ethanol, 288.2 K	0.000892
in ethanol, 293.2 K	0.00113
in ethanol, 298.2 K	0.00136
in ethanol, 303.2 K	0.00163
in ethanol, 308.2 K	0.00197
in ethanol, 313.2 K	0.00235
in ethanol, 318.2 K	0.00277
in ethyl acetate, 273.15 K	0.00271
in ethyl acetate, 278.15 K	0.00331
in ethyl acetate, 283.15 K	0.00391
in ethyl acetate, 288.15 K	0.00461
in ethyl acetate, 293.15 K	0.00532
in ethyl acetate, 298.15 K	0.00614
in ethyl acetate, 303.15 K	0.0071
in ethyl acetate, 308.15 K	0.00824
in ethyl acetate, 313.15 K	0.00948
in ethyl acetate, 318.15 K	0.0109
in isobutanol, 273.15 K	0.000861
in isobutanol, 278.15 K	0.00118
in isobutanol, 283.15 K	0.00153
in isobutanol, 288.15 K	0.0019
in isobutanol, 293.15 K	0.00231
in isobutanol, 298.15 K	0.00279
in isobutanol, 303.15 K	0.00331
in isobutanol, 308.15 K	0.00396
in isobutanol, 313.15 K	0.00475
in isobutanol, 318.15 K	0.00554
in isopropanol, 273.2 K	0.000474
in isopropanol, 278.2 K	0.000676
in isopropanol, 283.2 K	0.00085
in isopropanol, 288.2 K	0.00105
in isopropanol, 293.2 K	0.00127
in isopropanol, 298.2 K	0.00153
in isopropanol, 303.2 K	0.00181
in isopropanol, 308.2 K	0.0022
in isopropanol, 313.2 K	0.00265
in isopropanol, 318.2 K	0.00313
in methanol, 273.2 K	0.000712
in methanol, 278.2 K	0.000934
in methanol, 283.2 K	0.00119
in methanol, 288.2 K	0.00144
in methanol, 293.2 K	0.00171
in methanol, 298.2 K	0.00203
in methanol, 303.2 K	0.00238
in methanol, 308.2 K	0.00277
in methanol, 313.2 K	0.00335
in methanol, 318.2 K	0.00398
in n-butanol, 273.15 K	0.00106
in n-butanol, 278.15 K	0.00149
in n-butanol, 283.15 K	0.00194
in n-butanol, 288.15 K	0.00244
in n-butanol, 293.15 K	0.00291
in n-butanol, 298.15 K	0.00346
in n-butanol, 303.15 K	0.00412
in n-butanol, 308.15 K	0.00487
in n-butanol, 313.15 K	0.00575
in n-butanol, 318.15 K	0.00673
in n-propanol, 273.2 K	0.000773
in n-propanol, 278.2 K	0.00105
in n-propanol, 283.2 K	0.0014
in n-propanol, 288.2 K	0.00178
in n-propanol, 293.2 K	0.00218
in n-propanol, 298.2 K	0.00261
in n-propanol, 303.2 K	0.0031
in n-propanol, 308.2 K	0.00364
in n-propanol, 313.2 K	0.00424
in n-propanol, 318.2 K	0.005
in toluene, 273.15 K	0.00423
in toluene, 278.15 K	0.00517
in toluene, 283.15 K	0.00623
in toluene, 288.15 K	0.00735
in toluene, 293.15 K	0.00862
in toluene, 298.15 K	0.01
in toluene, 303.15 K	0.0116
in toluene, 308.15 K	0.0136
in toluene, 313.15 K	0.0155
in toluene, 318.15 K	0.0178
